Laboratory results taken from ChEMBL document CHEMBL1157949, “Kalanchosine dimalate, an anti-inflammatory salt from Kalanchoe brasiliensis” (J Nat Prod, 2006).
Active and inactive are the calls of the source. The calls are words filed in the database; no cut-off is given here.

System: Mus musculus
Assay: Antiinflammatory activity against zymosan-induced inflammation in mouse assessed as impairment of increase in popliteal lymph node weight at 240 mg/kg, ip administered daily 2 days before zymosan challenge measured after 5 days
Assay type: functional, organism-based
Set-up: dose 240 mg/kg

SMILES: NC(CC(=O)O)C(O)C(O)C(N)CC(=O)O (stereo unspecified)
- Activity: Active
